Reference: PMC8741894 (2022)

Legend:
[1] = system: MN4 (DNA, aptamer) GGCGACAAGGAAAATCCTTCAACGAAGTGGGTCGCC; assay: ITC; conditions: 140 mM NaCl, 5 mM KCl, 15 °C
[2] = system: MN19 (DNA, aptamer) GACAAGGAAAATCCTTCAACGAAGTGGGTC; assay: ITC; conditions: 140 mM NaCl, 5 mM KCl; 20 mM TRIS pH 7.4, 2.4% DMSO, 15 °C; site 1 of 2
[3] = system: OR7 (DNA, aptamer) CAAGGAAAATCCTTCAACGAAGTGGG; assay: ITC; conditions: 140 mM NaCl, 5 mM KCl; 20 mM TRIS pH 7.4, 2.4% DMSO, 15 °C; site 1 of 2
[4] = system: SS1 (DNA, junction) GGCGACGAGGAAAATCCTTCGACGAAGTAAGTCGCC; assay: ITC; conditions: 140 mM NaCl, 5 mM KCl; 20 mM TRIS pH 7.4, 2.4% DMSO, 15 °C; site 1 of 2
[5] = system: TWJ (DNA, junction) CGTGCAGCGGCTTGCCGGCACTTGTGCTTCTGCACG; assay: ITC; conditions: 140 mM NaCl, 5 mM KCl; 20 mM TRIS pH 7.4, 2.4% DMSO, 15 °C; site 1 of 2
[6] = system: DDD (DNA, duplex) CGCGAATTCGCG/CGCGAATTCGCG; assay: ITC; conditions: 140 mM NaCl, 5 mM KCl; 20 mM TRIS pH 7.4, 2.4% DMSO, 15 °C; site 1 of 2
[7] = system: Hexamer (DNA, duplex) CGTACG/CGTACG; assay: ITC; conditions: 140 mM NaCl, 5 mM KCl; 20 mM TRIS pH 7.4, 2.4% DMSO, 15 °C; site 1 of 2
[8] = system: poly-dT (DNA, single strand) TTTTTTTTTTTT; assay: ITC; conditions: 140 mM NaCl, 5 mM KCl; 20 mM TRIS pH 7.4, 2.4% DMSO, 15 °C; 20 µM nucleic acid, 0.312 mM titrant
[9] = system: SRE RNA (RNA, hairpin) GGAGGCUCUGGCAGCUUUC; assay: ITC; conditions: 140 mM NaCl, 5 mM KCl; 20 mM TRIS pH 7.4, 2.4% DMSO, 15 °C; 20 µM nucleic acid, 0.312 mM titrant
[10] = system: Hybrid DNA/RNA (DNA:RNA, duplex) GACACCUGAUUC/GAATCAGGTGTC; assay: ITC; conditions: 140 mM NaCl, 5 mM KCl; 20 mM TRIS pH 7.4, 2.4% DMSO, 15 °C; 20 µM nucleic acid, 0.312 mM titrant
[11] = system: MN19 (DNA, aptamer) GACAAGGAAAATCCTTCAACGAAGTGGGTC; assay: UV melting, 260 nm; conditions: 137 mM NaCl, 2.7 mM KCl; PBS pH 7.4, 3% acetonitrile; Tm of complex, free MN19 shows no transition
[12] = system: MN4 (DNA, aptamer) GGCGACAAGGAAAATCCTTCAACGAAGTGGGTCGCC; assay: 1H NMR imino titration; conditions: sodium phosphate, no added NaCl; 20 mM phosphate pH 7.4, 5 °C; slow exchange, shifts near three-way junction
[13] = system: MN4 (DNA, aptamer) GGCGACAAGGAAAATCCTTCAACGAAGTGGGTCGCC; assay: native mass spectrometry with CID; conditions: 300 mM ammonium acetate; pH 6.8; 10 µM aptamer, 100 µM ART; non-covalent
[14] = system: MN19-SITS (DNA, aptamer) GACAAGGAAAATCCTTCAACGAAGTGGGTC; assay: photochrome aptamer switch assay (fluorescence decay); conditions: 140 mM NaCl; 20 mM Tris pH 7.4, 3% DMSO, 20 °C; 0-4.2 µM ART
[15] = system: MN4 (DNA, aptamer) GGCGACAAGGAAAATCCTTCAACGAAGTGGGTCGCC; assay: ITC competition; conditions: 140 mM NaCl, 5 mM KCl; 20 mM TRIS pH 7.4, 1% DMSO, 15 °C; apparent; ART pre-bound 3:1, competitive binding model

Row | Kd1 ([1]; 20 mM TRIS pH 7.4, 2.4% DMSO, site 1 of 2) | Kd1 [2] | Kd1 [3] | Kd1 [4] | Kd1 [5] | Kd1 [6] | Kd1 [7] | binding [8] | binding [9] | binding [10] | Tm [11] | binding [12] | binding [13] | binding [14] | Kd, app [15] | binding ([1]; 20 mM TRIS pH 7.4, 1.5% DMSO, 20 µM aptamer, 0.312 mM titrant) | Compound
1 | 0.03 ± 0.01 µM | 0.02 ± 0.01 µM | 0.03 ± 0.01 µM | 0.004 ± 0.002 µM | 0.06 ± 0.02 µM | 0.10 ± 0.03 µM | 0.007 ± 0.004 µM | no | no | no | 34.8 ± 1.1 °C | yes | yes | yes | – | – | C[C@@H]1CC[C@H]2[C@@H](C)C(=O)O[C@@H]3O[C@@]4(C)CC[C@@H]1[C@]32OO4
2 | – | – | – | – | – | – | – | – | – | – | 36.4 ± 1.2 °C | – | – | – | 1.1 ± 0.1 µM | – | C=C[C@H]1CN2CC[C@H]1C[C@H]2[C@H](O)c1ccnc2ccc(OC)cc12
3 | – | – | – | – | – | – | – | – | – | – | – | – | – | – | – | no | C[C@@H]1CC[C@H]2[C@@H](C)C(=O)O[C@@H]3O[C@@]4(C)CC[C@@H]1[C@]32O4
